# In patent EP4667483A1, “HUMAN TRANSFERRIN RECEPTOR-BINDING PEPTIDE” (JCR Pharmaceuticals Co., Ltd., priority 2023, dated 2024):
# Bridge positions count the residues as written; N and C are the ends. Square brackets hold non-standard residues; d marks the D form. Peptide text beside a SMILES is read from it. * marks the point of attachment. Trp(1-CH2COOH) = N[C@@H](Cc1cn(CC(=O)O)c2ccccc12)C(=O)O; CH2CON(CH2CH2)2NCH2COOH = O=C(O)CN1CCN(C(=O)C*)CC1; NMePhe(4-COOH) = CN[C@@H](Cc1ccc(C(=O)O)cc1)C(=O)O; Nle(6-morpholino) = N[C@@H](CCCCN1CCOCC1)C(=O)O; Phe(3-COOH) = N[C@@H](Cc1cccc(C(=O)O)c1)C(=O)O; Trp(7-aza) = N[C@@H](Cc1c[nH]c2ncccc12)C(=O)O; NH(CH2CH2O)8Me = COCCOCCOCCOCCOCCOCCOCCOCCN*; NMePhe(3-Cl) = CN[C@@H](Cc1cccc(Cl)c1)C(=O)O; 3Pal(6-NH2) = Nc1ccc(C[C@H](N)C(=O)O)cn1; NMeW = CN[C@@H](Cc1c[nH]c2ccccc12)C(=O)O; PEG8 = NCCOCCOCCOCCOCCOCCOCCOCCOCCC(=O)O; NMeY = CN[C@@H](Cc1ccc(O)cc1)C(=O)O; Nva(3-Et) = CCC(CC)[C@H](N)C(=O)O; 4Pal = N[C@@H](Cc1ccncc1)C(=O)O; PEG4 = NCCOCCOCCOCCOCCC(=O)O; Carboxymethyl = O=C(O)C*
# Key:
# [1] = target: T1, human transferrin receptor (hTfR) (Homo sapiens, UniProt P02786); assay: SPR measurement under pH 7.4 conditions (Biacore T200, CM3 chip, hTfR captured by His Tag antibody); type: binding; settings: read-out: hTfR SPR pH7.4 KD
# T1 sequence (P02786 whole entry): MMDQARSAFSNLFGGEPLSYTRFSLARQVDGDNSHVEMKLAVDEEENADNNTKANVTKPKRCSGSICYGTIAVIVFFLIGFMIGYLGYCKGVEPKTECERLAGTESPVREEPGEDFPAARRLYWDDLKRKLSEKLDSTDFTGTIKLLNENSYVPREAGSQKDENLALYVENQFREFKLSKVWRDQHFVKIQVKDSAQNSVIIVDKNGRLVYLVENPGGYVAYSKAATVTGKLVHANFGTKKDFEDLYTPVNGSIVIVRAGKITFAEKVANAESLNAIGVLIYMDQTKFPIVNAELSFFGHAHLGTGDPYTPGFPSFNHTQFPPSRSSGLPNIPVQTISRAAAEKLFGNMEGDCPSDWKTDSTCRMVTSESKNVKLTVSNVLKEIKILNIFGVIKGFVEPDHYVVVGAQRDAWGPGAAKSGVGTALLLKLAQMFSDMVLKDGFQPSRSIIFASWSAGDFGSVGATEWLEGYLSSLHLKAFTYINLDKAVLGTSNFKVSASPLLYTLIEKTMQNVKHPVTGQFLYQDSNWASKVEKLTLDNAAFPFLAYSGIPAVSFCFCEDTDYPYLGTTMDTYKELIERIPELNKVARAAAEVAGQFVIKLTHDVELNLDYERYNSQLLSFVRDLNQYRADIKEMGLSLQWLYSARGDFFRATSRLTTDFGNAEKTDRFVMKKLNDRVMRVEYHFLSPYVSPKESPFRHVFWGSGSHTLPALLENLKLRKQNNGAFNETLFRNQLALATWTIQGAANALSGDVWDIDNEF
# [2] = target: T1, human transferrin receptor (hTfR); assay: SPR measurement under pH 6.0 conditions (Biacore T200, NTA chip, immobilized hTfR); type: binding; settings: read-out: hTfR SPR pH6.0 KD
# [3] = SPR, pH 7.4, peptide with the linker named in the table
# [4] = SPR, pH 6.0, peptide with the linker named in the table
"Kd [1, 3]","Kd [2, 4]","Kd ([1]; pH 7.4, single-cycle kinetics)","Kd ([2]; pH 6.0, single-cycle kinetics)",Compound
9.81 nM,76.4 nM,–,–,CCC(CC)[C@@H]1NC(=O)[C@H](Cc2ccc(OCC(=O)O)cc2)NC(=O)[C@H](Cc2ccc(O)cc2)NC(=O)[C@H](CC(N)=O)NC(=O)[C@H](Cc2cn(CC(=O)O)c3ccccc23)NC(=O)[C@H](C(C)C)NC(=O)[C@H](Cc2cccc(Cl)c2)N(C)C(=O)[C@H](C(C)C)NC(=O)[C@H](C)NC(=O)CSC[C@@H](C(=O)NCCOCCOCCOCCOCCC(N)=O)NC(=O)[C@H](Cc2ccc(O)cc2)N(C)C(=O)[C@H](Cc2ccc(N)nc2)NC(=O)[C@H](CCCNC(=N)N)NC(=O)[C@H](CCC(N)=O)NC(=O)[C@H]([C@@H](C)CC)NC1=O [compound 102] ({CH2CO}-AV[NMePhe(3-Cl)]V[Trp(1-CH2COOH)]NYY(Carboxymethyl)[Nva(3-Et)]IQR[3Pal(6-NH2)][NMeY]C[PEG4]-NH2; thioether N-15)
26 nM,90.1 nM,–,–,CCC(CC)[C@@H]1NC(=O)[C@H](Cc2ccc(OCC(=O)O)cc2)NC(=O)[C@H](Cc2ccc(O)cc2)NC(=O)[C@H](CC(N)=O)NC(=O)[C@H](Cc2c[nH]c3ncccc23)NC(=O)[C@H](C(C)C)NC(=O)[C@H](Cc2cccc(Cl)c2)N(C)C(=O)[C@H](C(C)C)NC(=O)[C@H](C)NC(=O)CSC[C@@H](C(=O)NCCOCCOCCOCCOCCC(N)=O)NC(=O)[C@H](Cc2ccc(O)cc2)N(C)C(=O)[C@H](Cc2cccc(C(=O)O)c2)NC(=O)[C@H](CCCNC(=N)N)NC(=O)[C@H](CCC(=O)NCCOCCOCCOCCOCCOCCOCCOCCOC)NC(=O)[C@H]([C@@H](C)CC)NC1=O [compound 106] ({CH2CO}-AV[NMePhe(3-Cl)]V[Trp(7-aza)]NYY(Carboxymethyl)[Nva(3-Et)]IE(NH(CH2CH2O)8Me)R[Phe(3-COOH)][NMeY]C[PEG4]-NH2; thioether N-15)
–,–,1.56 nM,18.2 nM,CC[C@H](C)[C@@H]1NC(=O)[C@H](Cc2ccc(OC)cc2)NC(=O)[C@H](Cc2ccc(N)nc2)NC(=O)[C@H](CC(N)=O)NC(=O)[C@H](Cc2c[nH]c3ncccc23)NC(=O)[C@H](C(C)C)NC(=O)[C@H](Cc2cccc(Cl)c2)N(C)C(=O)[C@H](C(C)C)NC(=O)[C@H](C)NC(=O)CSC[C@@H](C(=O)NCCOCCOCCOCCOCCC(N)=O)NC(=O)[C@H](Cc2ccc(O)cc2)N(C)C(=O)[C@H](Cc2ccncc2)NC(=O)[C@H](CCCNC(=N)N)NC(=O)[C@H](CCCNC(=N)N)NC(=O)[C@H]([C@@H](C)CC)NC1=O [compound 1]
142 nM,212 nM,–,–,CC[C@H](C)[C@@H]1NC(=O)[C@H](Cc2ccc(OC)cc2)NC(=O)[C@H](Cc2ccc(O)cc2)NC(=O)[C@H](CC(N)=O)NC(=O)[C@H](Cc2c[nH]c3ncccc23)NC(=O)[C@H](C(C)C)NC(=O)[C@H](Cc2cccc(Cl)c2)N(C)C(=O)[C@H](C(C)C)NC(=O)[C@H](C)NC(=O)CSC[C@@H](C(=O)NCCOCCOCCOCCOCCC(N)=O)NC(=O)[C@H](Cc2ccc(O)cc2)N(C)C(=O)[C@H](CCC(=O)NCCOCCOCCOCCOCCOCCOCCOCCOCCC(=O)O)NC(=O)[C@H](CCCNC(=N)N)NC(=O)[C@H](CCC(=O)NCCOCCOCCOCCOCCOCCOCCOCCOCCC(=O)O)NC(=O)[C@H]([C@@H](C)CC)NC1=O [compound 141] ({CH2CO}-AV[NMePhe(3-Cl)]V[Trp(7-aza)]NYY(Me)IIE(PEG8)RE(PEG8)[NMeY]C[PEG4]-NH2; thioether N-15)
–,–,116 nM,249 nM,CCC(CC)[C@@H]1NC(=O)[C@H](Cc2ccc(OCC(=O)O)cc2)NC(=O)[C@H](Cc2ccc(N)nc2)NC(=O)[C@H](CC(N)=O)NC(=O)[C@H](Cc2cn(CC(=O)O)c3ccccc23)NC(=O)[C@H](C(C)C)NC(=O)[C@H](Cc2cccc(Cl)c2)N(C)C(=O)[C@H](C(C)C)NC(=O)[C@H](C)NC(=O)CSC[C@@H](C(=O)NCCOCCOCCOCCOCCC(N)=O)NC(=O)[C@H](Cc2ccc(O)cc2)N(C)C(=O)[C@H](Cc2ccncc2)NC(=O)[C@H](CCCCN2CCOCC2)NC(=O)[C@H](CCC(N)=O)NC(=O)[C@H]([C@@H](C)CC)NC1=O [compound 47] ({CH2CO}-AV[NMePhe(3-Cl)]V[Trp(1-CH2COOH)]N[3Pal(6-NH2)]Y(Carboxymethyl)[Nva(3-Et)]IQ[Nle(6-morpholino)][4Pal][NMeY]C[PEG4]-NH2; thioether N-15)
–,–,16.3 nM,89.8 nM,CC[C@H](C)[C@@H]1NC(=O)[C@H](Cc2ccc(OCC(=O)O)cc2)NC(=O)[C@H](Cc2ccc(N)nc2)NC(=O)[C@H](CC(N)=O)NC(=O)[C@H](Cc2c[nH]c3ncccc23)NC(=O)[C@H](C(C)C)NC(=O)[C@H](Cc2cccc(Cl)c2)N(C)C(=O)[C@H](C(C)C)NC(=O)[C@H](C)NC(=O)CSC[C@@H](C(=O)NCCOCCOCCOCCOCCC(N)=O)NC(=O)[C@H](Cc2ccc(O)cc2)N(C)C(=O)[C@H](Cc2ccncc2)NC(=O)[C@H](CCCCN2CCOCC2)NC(=O)[C@H](CCCCN2CCOCC2)NC(=O)[C@H]([C@@H](C)CC)NC1=O [compound 7] ({CH2CO}-AV[NMePhe(3-Cl)]V[Trp(7-aza)]N[3Pal(6-NH2)]Y(Carboxymethyl)II[Nle(6-morpholino)][Nle(6-morpholino)][4Pal][NMeY]C[PEG4]-NH2; thioether N-15)
–,–,0.134 nM,2.26 nM,CC[C@H](C)[C@@H]1NC(=O)[C@H](Cc2ccc(OCC(=O)O)cc2)NC(=O)[C@H](Cc2ccc(O)cc2)NC(=O)[C@H](CC(N)=O)NC(=O)[C@H](Cc2c[nH]c3ccccc23)N(C)C(=O)[C@H](C(C)C)NC(=O)[C@H](Cc2cccc(Cl)c2)N(C)C(=O)[C@H](C(C)C)NC(=O)[C@H](C)NC(=O)CSC[C@@H](C(=O)NCCOCCOCCOCCOCCC(N)=O)NC(=O)[C@H](Cc2ccc(O)cc2)N(C)C(=O)[C@H](Cc2cccc(C(=O)O)c2)NC(=O)[C@H](CCCNC(=N)N)NC(=O)[C@H](CCCCN)NC(=O)[C@H]([C@@H](C)CC)NC1=O [compound 177]
–,–,12.6 nM,72 nM,CCC(CC)[C@@H]1NC(=O)[C@H](Cc2ccc(OCC(=O)N3CCN(CC(=O)O)CC3)cc2)NC(=O)[C@H](Cc2ccc(O)cc2)NC(=O)[C@H](CC(N)=O)NC(=O)[C@H](Cc2cn(CC(=O)O)c3ccccc23)NC(=O)[C@H](C(C)C)NC(=O)[C@H](Cc2cccc(Cl)c2)N(C)C(=O)[C@H](C(C)C)NC(=O)[C@H](C)NC(=O)CSC[C@@H](C(=O)NCCOCCOCCOCCOCCC(N)=O)NC(=O)[C@H](Cc2ccc(C(=O)O)cc2)N(C)C(=O)[C@H](Cc2ccncc2)NC(=O)[C@H](CCCCN2CCOCC2)NC(=O)[C@H](CCCCN2CCOCC2)NC(=O)[C@H]([C@@H](C)CC)NC1=O [compound 56] ({CH2CO}-AV[NMePhe(3-Cl)]V[Trp(1-CH2COOH)]NYY(CH2CON(CH2CH2)2NCH2COOH)[Nva(3-Et)]I[Nle(6-morpholino)][Nle(6-morpholino)][4Pal][NMePhe(4-COOH)]C[PEG4]-NH2; thioether N-15)
59.1 nM,271 nM,–,–,CC[C@H](C)[C@@H]1NC(=O)[C@H](Cc2ccc(OCC(=O)O)cc2)NC(=O)[C@H](Cc2ccc(O)cc2)NC(=O)[C@H](CC(N)=O)NC(=O)[C@H](Cc2c[nH]c3ncccc23)NC(=O)[C@H](C(C)C)NC(=O)[C@H](Cc2cccc(Cl)c2)N(C)C(=O)[C@H](C(C)C)NC(=O)[C@H](C)NC(=O)CSC[C@@H](C(=O)NCCOCCOCCOCCOCCC(N)=O)NC(=O)[C@H](Cc2ccc(O)cc2)N(C)C(=O)[C@H](CCC(=O)NCCOCCOCCOCCOCCC(=O)O)NC(=O)[C@H](CCCNC(=N)N)NC(=O)[C@H](CCC(N)=O)NC(=O)[C@H]([C@@H](C)CC)NC1=O [compound 143] ({CH2CO}-AV[NMePhe(3-Cl)]V[Trp(7-aza)]NYY(Carboxymethyl)IIQRE(PEG4)[NMeY]C[PEG4]-NH2; thioether N-15)
–,–,0.888 nM,16.2 nM,CC[C@H](C)[C@@H]1NC(=O)[C@H](Cc2ccc(OC)cc2)NC(=O)[C@H](Cc2ccc(N)nc2)NC(=O)[C@H](CC(N)=O)NC(=O)[C@H](Cc2c[nH]c3ncccc23)NC(=O)[C@H](C(C)C)NC(=O)[C@H](Cc2cccc(Cl)c2)N(C)C(=O)[C@H](C(C)C)NC(=O)[C@H](C)NC(=O)CSC[C@@H](C(=O)NCCOCCOCCOCCOCCC(N)=O)NC(=O)[C@H](Cc2ccc(O)cc2)N(C)C(=O)[C@H](Cc2ccncc2)NC(=O)[C@H](CCCNC(=N)N)NC(=O)[C@H](CCCCN2CCOCC2)NC(=O)[C@H]([C@@H](C)CC)NC1=O [compound 2] ({CH2CO}-AV[NMePhe(3-Cl)]V[Trp(7-aza)]N[3Pal(6-NH2)]Y(Me)II[Nle(6-morpholino)]R[4Pal][NMeY]C[PEG4]-NH2; thioether N-15)
–,–,0.391 nM,3.1 nM,CC[C@H](C)[C@@H]1NC(=O)[C@H](Cc2ccc(OCC(=O)O)cc2)NC(=O)[C@H](Cc2ccc(O)cc2)NC(=O)[C@H](CC(N)=O)NC(=O)[C@H](Cc2c[nH]c3ccccc23)N(C)C(=O)[C@H](C(C)C)NC(=O)[C@H](Cc2cccc(Cl)c2)N(C)C(=O)[C@H](C(C)C)NC(=O)[C@H](C)NC(=O)CSC[C@@H](C(=O)NCCOCCOCCOCCOCCC(N)=O)NC(=O)[C@H](Cc2ccc(C(=O)NCCOCCOCCOCCOCCC(=O)O)cc2)N(C)C(=O)[C@H](Cc2cccc(C(=O)O)c2)NC(=O)[C@H](CCCNC(=N)N)NC(=O)[C@H](CCCCN)NC(=O)[C@H]([C@@H](C)CC)NC1=O [compound 178] ({CH2CO}-AV[NMePhe(3-Cl)]V[NMeW]NYY(Carboxymethyl)IIKR[Phe(3-COOH)][NMePhe(4-COOH)](PEG4)C[PEG4]-NH2; thioether N-15)
–,–,3.45 nM,33.4 nM,CC[C@H](C)[C@@H]1NC(=O)[C@H](Cc2ccc(OCC(=O)N3CCN(CC(=O)O)CC3)cc2)NC(=O)[C@H](Cc2ccc(O)cc2)NC(=O)[C@H](CC(N)=O)NC(=O)[C@H](Cc2c[nH]c3ncccc23)NC(=O)[C@H](C(C)C)NC(=O)[C@H](Cc2cccc(Cl)c2)N(C)C(=O)[C@H](C(C)C)NC(=O)[C@H](C)NC(=O)CSC[C@@H](C(=O)NCCOCCOCCOCCOCCC(N)=O)NC(=O)[C@H](Cc2ccc(O)cc2)N(C)C(=O)[C@H](Cc2ccncc2)NC(=O)[C@H](CCCCN2CCOCC2)NC(=O)[C@H](CCC(N)=O)NC(=O)[C@H]([C@@H](C)CC)NC1=O [compound 23]
